In ChEMBL document CHEMBL1153659, “Target directed enediyne prodrugs: hER and AhR degradation by a synthetic oxo-enediyne” (1996) one finds inhibition data, which are given here for 1 molecule.

The assay deals with T47D. Put plainly: Compound was tested for growth inhibition against T-47D-Y cells at 10e-4 M. As to conditions: Homo sapiens. Format: functional.

A word on the inhibition: it is the percentage by which the read-out fell short of the control. A higher inhibition goes with strong suppression.

`C1#CCO[C@H]2CCCC[C@@H]2C#C/C=C\1`: the inhibition at 100 µM amounted to 83%.
